The results in this text go back to patent publication US20250345383A1, “INTRANASAL ADMINISTRATION OF POLYSULFIDE” (The General Hospital Corporation, priority 2022, published 2025).

For one data set, the system named is mice subjected to SCI. Briefly: Mouse model of spinal cord ischemia (SCI): delayed paraplegia, hindlimb motor function by Basso mouse scale (BMS). It is filed as in vivo.
Data set [1] has as its system primary cortical neurons. In words: Cell viability after oxygen and glucose deprivation/reoxygenation (OGD/R), primary cortical neurons. Type of data set: cell-based, mouse. The note with it: GSSSG at 30 μM, GSH at 60 μM, GSSG at 30 μM; vs vehicle-only treated cells. Here is the method:
Primary cortical neurons were isolated from the cerebral cortices of C57BL/6J mice of both sexes at embryonic day 15, as previously described 39. Primary cortical neurons were maintained at 37° C. in a humidified tissue culture chamber with 5% CO2 and cells were used on day 11 after harvest. […] After reoxygenation, cell viability and cell injury were assessed using crystal violet and lactate dehydrogenase (LDH) assays, as previously described^39.

The nature of data set [2]: LC-MS/MS of ^34S-labeled GSSSG and sulfane sulfur species in CNS and plasma after intranasal GS^34SSG. It is filed as in vivo, mouse. Here is the method:
We used LC-MS/MS analysis to measure the amount of ^34S-labeled GSSSG ([^32S2, ^34S]GSSSG) in the CNS and plasma after intranasal administration of GS^34SSG, an isotope of endogenous GSSSG^9,35,36. The ratios of ^34S-labeled sulfane sulfur species ([^32S, ^34S]GSSH, [^32S, ^34S]cysteine hydropersulfide (CysSSH), and [^32S2, ^34S]cysteine trisulfide (CysSSSCys)) to endogenous sulfane sulfur species ([^32S2]GSSH, [^32S2]CysSSH, and […]) were also quantitatively evaluated. At 30 minutes after intranasal administration of 50 mg/kg of GS^34SSG, blood was obtained and four different central nervous tissues were harvested: olfactory bulb and forebrain; brainstem; cervical and thoracic spinal cord, and lumbar spinal cord. A total of 30 mg of each tissue was homogenized in 300 μl of ice-cold methanol solution containing 5 mM β-(4-hydroxyphenyl)ethyl iodoacetamide (HPE-IAM; Santa Cruz Biotechnology, Dallas, TX, USA). Twenty-five μl of plasma was mixed with 75 μl of ice-cold methanol solution containing 5 mM HPE-IAM. Samples were incubated for 20 minutes at 37° C. in the dark. After centrifugation (14,000×g for tissues, 1,870×g for plasma, 10 minutes, 4° C.), the supernatant was separated and diluted with 0.1% formic acid for LC-MS/MS analysis, and the pellet was sonicated to measure the protein concentration by BCA assay. The amount of [^32S2, ^34S]GSSSG was quantified in selective reaction monitoring (SRM) with precursor ion (647.14 m/z), product ion (389.1 m/z), and higher energy collisional dissociation (21 v). The ratios of [^32S, ^34S]GSSH to [^32S2]GSSH, [^32S, ^34S]CysSSH to [^32S2]CysSSH, and [^32S2, ^34S]CysSSSCys to [^32S3]CysSSSCys were calculated from their peak area measured by Dionex UltiMate 3000 RS UPLC-Orbitrap Exploris 480 mass spectrometer (Thermo Fisher Scientific, Waltham, MA, USA). In brief, samples were subjected to the UPLC system with a Hypersil Gold C-18 (100×2.1 mm, 3.0 μm, Thermo Fisher Scientific, Waltham, MA, USA) column and were then eluted by a linear methanol gradient of the mobile phase (0-90%, 15 minutes) in the presence of 0.1% formic acid at a flow rate of 0.2 ml/minute at 40° C. The raw data were analyzed by Compound Discoverer 3.3 software (Thermo Fisher Scientific, Waltham, MA, USA). The molecular weights of these sulfane sulfur species combined with HPE-IAM were determined based on previous reports^9,11,37.

Data set [3] concerns murine primary cortical neurons. Briefly: Cell viability of murine primary cortical neurons incubated with MPP+ (crystal violet assay). The conditions noted are these: MPP+ 50 μM, 24 hours. It is filed as cell-based, mouse. How it is done: (§1) Cell viability assays was performed to examine cell viabilities of SH-SY5Y cells or murine primary cortical neurons 24 h after the addition of MPP^+ (5 mM for SH-SY5Y, 50 μM for primary cortical neurons) with vehicle (PBS), Na2S (Sigma-Aldrich), Na2S3 (Dojindo Molecular Technologies, Inc), GSSSG (Glutathione trisulfide, Kyowa Hakko Bio Co., Ltd., Tokyo, Japan), LA (α-Lipoic acid, Sigma-Aldrich) or LASSS (α-Lipoic acid trisulfide, Kyowa Hakko Bio Co., Ltd., Tokyo, Japan). Cell viability was measured using the crystal violet assay.

Data set [4] deals with primary cortical neurons. Briefly: Relative sulfane sulfur levels in primary cortical neurons (SSip-1 DA). It is filed as cell-based, mouse. The conditions noted are these: incubation at 10 μM for 20 minutes; relative to untreated neurons. Here is the method:
Primary cortical neurons were isolated from the cerebral cortices of C57BL/6J mice of both sexes at embryonic day 15, as previously described 39. Primary cortical neurons were maintained at 37° C. in a humidified tissue culture chamber with 5% CO2 and cells were used on day 11 after harvest.
(§2) Primary cortical neurons or SH-SY5Y cells, a human neuroblastoma cell line (American Type Culture Collection, Manassas, VA, USA), were incubated with SSip-1 DA […] at 37° C. for 20 minutes in the dark. Cells were washed with pre-warmed HBSS containing calcium and magnesium (Thermo Fisher Scientific, Waltham, MA, USA) and then cells were incubated with GSSSG, sodium trisulfide (Na2S3; Dojindo Molecular Technologies, Inc., Rockville, MD, USA), PTN-SSS, or vehicle alone for 20 minutes at 37° C. in the dark. Fluorescence intensities were measured using a microplate reader.

The subject of data set [5] is SH-SY5Y cells. Briefly: Cell viability of SH-SY5Y cells incubated with MPP+ (crystal violet assay). Type of data set: cell-based, human. The conditions noted are these: MPP+ 5 mM, 24 h. Here is the method: as §1
For data set [6], the system named is sulfane sulfur in olfactory bulb and forebrain, whole spinal cord. In words: Relative sulfane sulfur levels in olfactory bulb and forebrain and whole spinal cord after intranasal PTN-SSS (SSip-1). The note with it: 30 minutes after intranasal 50 mg/kg PTN-SSS; vs vehicle alone. Type of data set: in vivo, mouse. Here is the method:
At 30 minutes after intranasal administration of 50 mg/kg of PTN-SSS, the olfactory bulb and forebrain and the whole spinal cord were harvested. Tissues were homogenized in HBSS containing […] of SSip-1. The fluorescence intensities of supernatants were measured.

The subject of data set [7] is SH-SY5Y cells. Briefly: Relative sulfane sulfur levels in SH-SY5Y cells (SSip-1 DA). It is filed as cell-based, human. The note with it: PTN-SSS 10-50 μM; vs vehicle-only treated cells. How it is done: as §2
Data set [8] has as its system SH-SY5Y cells. In words: Cell viability after OGD/R, SH-SY5Y cells. It is filed as cell-based, human. Here is the method: After reoxygenation, cell viability and cell injury were assessed using crystal violet and lactate dehydrogenase (LDH) assays, as previously described^39.
Data set [9] can be described thus: Water solubility of PTN-SSS. It is filed as physicochemical.
The nature of data set [10]: Stability of PTN-SSS in solution. It is filed as physicochemical. The note with it: pH 4.0-9.0 at room temperature.
Setting [11] is: 30 minutes after intranasal 50 mg/kg GS^34SSG, mean ± SD.

Source text for mice subjected to SCI: Adult C57BL/6J mice (12-18 weeks old) of both sexes were purchased from Jackson Laboratory (Bar Harbor, ME, USA). Both male and female mice were used in experiments to investigate the neuroprotective effect of GSSSG on motor function after SCI. […] All mice were housed in a temperature and humidity-controlled room in the animal center with a 12-hour light/dark cycle, and were provided with food and water ab libitum. To permit access by mice that were recovering from surgery, additional food pellets were inserted into hydrated gel placed on the bedding. A randomized paired design was used to minimize the variability between each treatment group. Mice were paired based on weight, age, delivery dates, and when possible, holding cages. After the pairing, mice were randomly assigned to different treatments.
The surgical procedures to produce delayed paraplegia in mice were performed as previously described^6 (FIG. 2A). Mice were anesthetized with 5% isoflurane in 100% O2 and tracheally intubated with a 20-gauge catheter (Angiocath; Becton Dickinson, Franklin Lakes, NJ, USA). […] The paravertebral muscle temperature was measured using a T-type implantable thermocouple probe (IT-18) and a T-type pod (ADInstruments, Colorado Springs, CO, USA). […] A median sternotomy extended from the apex of the manubrium to the second rib. The aortic arch was gently isolated between the left common carotid artery (LCCA) and the left subclavian artery (LSA), avoiding the vagus nerve and the left recurrent laryngeal nerve. […] After ischemia, the clips were removed in reverse order. Incisions were closed in layers and mechanical ventilation was discontinued. After stable spontaneous respiration was confirmed, mice were extubated.
The previously described surgical procedures^6 were modified as follows. The respiratory rate during the procedure was increased to 230 breaths/minute, because hyperventilation promotes the occurrence of delayed paraplegia caused by spinal cord ischemia^33. A laser Doppler perfusion monitor (moorVMS-LDF1; Moor Instruments, Millwey, UK) was used to monitor the femoral artery blood flow^28,29. […] To improve the accuracy of surgical procedures, a microscope (Leica MZ95; Leica Microsystems, Buffalo Grove, IL, USA) was used to isolate the aortic arch and place the clips.
Study drugs were administered intranasally using a single-channel pipettor. Mice were anesthetized with 3% isoflurane using a non-rebreathing circuit with a mouse nose cone (VetEquip, Inc., Livermore, CA, USA). While the drugs were administered, the nose cone was removed and mice were allowed to breathe air. Approximately 6 μL of each drug was administered into the mouse's nostrils and the mouse inhaled the droplets during inspiration. […]

Consider `N[C@@H](CCC(=O)N[C@@H](CS)C(=O)NCC(=O)O)C(=O)O` [GSH, glutathione, reference compound], for which, in the data set with mice subjected to SCI (male mice, n=11 per group, intranasal at 0, 8, 23, 32 hours after surgery, GSSSG 50 mg/kg, GSH 45.2 mg/kg), the “mice in which development of delayed paraplegia was prevented” value is 27%. In addition, the “cell viability after OGD/R, crystal violet assay (GSSSG, GSH, GSSG comparison)” value in the data set with primary cortical neurons [1] is listed as “did not improve cell viability”.

For the compound `N[C@@H](CCC(=O)N[C@@H](CS[34S]SC[C@H](NC(=O)CC[C@H](N)C(=O)O)C(=O)NCC(=O)O)C(=O)NCC(=O)O)C(=O)O` [GS^34SSG], in data set [2] (setting [11]), the “[^32S2, ^34S]GSSSG concentration in plasma” value stood at 25 ± 10 nM; the “[^32S2, ^34S]GSSSG in brainstem” value worked out at 226±101 pmol/mg protein; the “[^32S2, ^34S]GSSSG in cervical and thoracic spinal cord” value is on record as 414±98 pmol/mg protein; the “[^32S2, ^34S]GSSSG in lumbar spinal cord” value was 317±111 pmol/mg protein. In addition, in data set [2] (setting [11]), the “[^32S2, ^34S]GSSSG in olfactory bulb and forebrain” value amounted to 128±67 pmol/mg protein; the “ratio of [^32S2, ^34S]CysSSSCys to [^32S3]CysSSSCys in brain and spinal cord” value was found to be 31.8±9.8; the “ratio of [^32S, ^34S]GSSH to [^32S2]GSSH in brain and spinal cord” value is on record as 6.5±2.8. Besides, the “concentration of ^34S-labeled GSSSG in the central nervous system” value in data set [2] (30 minutes after intranasal GS^34SSG, all CNS tissues) was determined as 268±140 pmol/mg protein. Besides, in data set [2] (after intranasal GS^34SSG, worked out from previously reported endogenous CysSSH level), the “level of ^34S-labeled CysSSH in lumbar spinal cord” value was roughly 18 pmol/mg protein. Besides, the “level of ^34S-labeled GSSH in lumbar spinal cord” value in [2] (after intranasal GS^34SSG, worked out from previously reported endogenous GSSH level) was “approximately 1,600 pmol/mg protein”.

`O=C(O)CCCCC1CCSSS1` (centres unmarked) [LA-SSS, 1,2,3-trithiane-4-pentanoic acid]: in data set [3], the “protection of murine primary cortical neurons from the effects of MPP+ treatment” value was “protected”.

Turning to `[Na+].[Na+].[S-]S[S-]` [Na2S3, sodium trisulfide, reference compound], the “levels of intracellular sulfane sulfur in primary cortical neurons” value in the data set on primary cortical neurons [4] is on record as “increased levels of intracellular sulfane sulfur”. Further, the “viability of MPP+-treated SH-SY5Y cells” value in the data set with SH-SY5Y cells [5] (10 μM each) is recorded as “increased the viability”.

As to `[Na+].[Na+].[S-2]` [Na2S], the “viability of SH-SY5Y cells treated with MPP+” value in the data set with SH-SY5Y cells [5] (Na2S doses between 1 and 100 μM) is “did not improve the viability”.

For the compound `CC(C)(CO)[C@@H](O)C(=O)NCCC(=O)NCCSSSCCNC(=O)CCNC(=O)[C@H](O)C(C)(C)CO` [PTN-SSS, pantethine trisulfide], the “male mice rescued from delayed paraplegia” value in the data set on mice subjected to SCI (PTN-SSS study, n=9 per group, intranasal PTN-SSS 50 mg/kg or PTN 47.3 mg/kg at 0, 8, 23, 32 hours after surgery) was determined as 66%. In addition, in [6], the “sulfane sulfur levels in the olfactory bulb and forebrain and the whole spinal cord” value is given as “increased sulfane sulfur levels”. Further, the “sulfane sulfur levels in SH-SY5Y cells” value with SH-SY5Y cells [7] is reported as “increased significantly”. Further, the “SH-SY5Y viability after OGD/R, crystal violet assay” value was “significantly improved” with SH-SY5Y cells [8] (PTN-SSS at 10 μM, 25 μM, or 50 μM, vs vehicle-only treated cells) and “did not improve cell viability” in the data set on SH-SY5Y cells [8] (PTN-SSS at 100 μM). This compound also displayed a water solubility in data set [9] greater than 50 mg/mL. Also, the stable in solution result in data set [10] is recorded as “at least 4 days”.
